According to patent US6071954A, “(methylsulfonyl)phenyl-2-(5H)-furanones with oxygen link as COX-2 inhibitors” (Merk Frosst Canada, Inc., priority 1998, dated 2000):

Assays:
Rat Paw Edema = test: Rat paw edema assay (carrageenan); type: in vivo, rat (male Sprague-Dawley); details: po, 1 hr before carrageenan, paw volume 3 hr later
Description: Male Sprague-Dawley rats (150-200 g) are fasted overnight and are given, po, either vehicle (1% methocel or 5% Tween 80) or a test compound. One hr later, a line is drawn using a permanent marker at the level above the ankle in one hind paw to define the area of the paw to be monitored. The paw volume (V0) is measured using a plethysmometer (Ugo-Basile, Italy) based on the principle of water displacement. The animals are then injected subplantarly with […] of 1% carrageenan solution in saline (FMC Corp, Maine) into the paw using an insulin syringe with a 25-gauge needle (i.e. […] carrageenan per paw). Three hr later, the paw volume (V3) is measured and the increases in paw volume (V3 -V0) are calculated. The animals are sacrificed by CO2 asphyxiation and the absence or presence of stomach lesions scored. Data is compared with the vehicle-control values and percent inhibition calculated. All treatment groups are coded to eliminate observer bias.

COX-2 [1] = target: T1, COX-2 (Homo sapiens, UniProt P35354); test: Whole cell assay for COX-2 using CHO transfected cell lines (CHO[hCOX-2]); type: cell-based; design: expressed in transfected cells; CHO[hCOX-2]; details: CHO[hCOX-2] cells, PGE2 synthesis in response to arachidonic acid
T1 sequence (P35354 18-604): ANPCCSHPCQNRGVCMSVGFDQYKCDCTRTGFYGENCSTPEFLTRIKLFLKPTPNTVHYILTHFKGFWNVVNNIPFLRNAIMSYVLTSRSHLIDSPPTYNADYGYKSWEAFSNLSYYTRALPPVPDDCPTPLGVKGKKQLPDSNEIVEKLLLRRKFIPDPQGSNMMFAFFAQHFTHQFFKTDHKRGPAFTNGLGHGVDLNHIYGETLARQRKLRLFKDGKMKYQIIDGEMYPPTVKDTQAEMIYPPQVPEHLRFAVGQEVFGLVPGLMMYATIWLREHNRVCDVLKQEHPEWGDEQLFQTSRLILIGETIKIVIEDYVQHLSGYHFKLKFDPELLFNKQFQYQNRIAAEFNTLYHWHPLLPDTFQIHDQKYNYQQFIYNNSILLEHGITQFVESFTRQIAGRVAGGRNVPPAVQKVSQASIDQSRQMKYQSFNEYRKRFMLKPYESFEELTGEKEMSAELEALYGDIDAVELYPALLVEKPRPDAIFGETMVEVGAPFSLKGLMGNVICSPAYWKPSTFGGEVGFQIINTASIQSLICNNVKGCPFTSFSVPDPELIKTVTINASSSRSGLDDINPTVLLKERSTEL
Description: Compounds are tested as inhibitors of cyclooxygenase activity in whole cell cyclooxygenase assays. These assays measure prostaglandin E2 synthesis in response to arachidonic acid, using a radioimmunoassay. Cells used for these assays are chinese hamster ovary (CHO) cell lines which have been stably transfected with an eukaryotic expression vector […] containing either the human Cox-1 or Cox-2 CDNA's. U937 cell microsomes are also used to measure Cox-1 activity.
Chinese hamster ovary (CHO) cell lines which have been stably transfected with an eukaryotic expression vector pCDNAIII containing either the human COX-1 or COX-2 cDNA's are used for the assay. These cell lines are referred to as CHO [hCOX-1] and CHO [hCOX-2], respectively. […] Drugs to be tested are dissolved in DMSO to 66.7-fold the highest test drug concentration. […] Cells (0.3×10^6 cells in 200 μl) are preincubated with 3 μl of the test drug or DMSO vehicle for 15 min at 37° C.
In the assay, inhibition is determined by measuring the amount of prostaglandin E2 (PGE2) synthesized in the presence of arachidonic acid, cyclooxygenase-1 or cyclooxygenase-2 and a putative inhibitor.

COX-2 [2] = target: T1, COX-2; test: Human whole blood assay, COX-2 (LPS-induced PGE2 production); type: cell-based; design: incubation of human whole blood with LPS, which induces COX-2; endogenous in cells; host or cells: fresh heparinized whole blood of human volunteers, LPS-stimulated; details: LPS-induced PGE2, 24 hours at 37° C, read-out: COX-2 (IC50) HWB
Excerpt: As well, platelets in whole blood contain a large amount of the COX-1 enzyme. Immediately following blood clotting, platelets are activated through a thrombin-mediated mechanism. This reaction results in the production of thromboxane B2 (TxB2) via activation of COX-1. Thus, the effect of test compounds on TxB2 levels following blood clotting can be examined and used as an index for COX-1 activity. Therefore, the degree of selectivity by the test compound can be determined by measuring the levels of PGE2 after LPS induction (COX-2) and TxB2 following blood clotting (COX-1) in the same assay. A. COX-2 (LPS-induced PGE2 production) Fresh blood is collected in heparinized tubes by venipuncture from both male and female volunteers. The subjects have no apparent inflammatory conditions and have not taken any NSAIDs for at least 7 days prior to blood collection. Plasma is immediately obtained from a 2 mL blood aliquot to use as blank (basal levels of PGE2). […] The supernatant is obtained and is assayed for PGE2 using a radioimmunoassay kit (Amersham, RPA#530) after conversion of PGE2 to its methyl oximate derivative according to the manufacturer's procedure.

| IC50 (COX-2 [1]) | IC50 (COX-2 [2]) | SMILES | ED50 (Rat Paw Edema) |
| --- | --- | --- | --- |
|  |  | CC1(C)OC(=O)C(OC2CCC(F)(F)CC2)=C1c1ccc(S(C)(=O)=O)cc1 [Example 17] | 0.9 mg/kg |
| 0.6 µM | 0.9 µM | C[C@H](O)[C@@H](C)OC1=C(c2ccc(S(C)(=O)=O)cc2)C(C)(C)OC1=O (relative stereo) [Example 4] |  |
|  |  | CC1(C)OC(=O)C(OC(C(F)(F)F)C(F)(F)F)=C1c1ccc(S(C)(=O)=O)cc1 [Example 2, 5,5-Dimethyl-3-(1,1,1,3,3,3-hexafluoropropoxy)-4-(4-methylsulfonylphenyl)-5H-furan-2-one] | 1 mg/kg |
